Measured values taken from ChEMBL document CHEMBL2074011, “Comparison of furosemide and vinblastine secretion from cell lines overexpressing multidrug resistance protein (P-glycoprotein) and multidrug resistance-associated proteins (MRP1 and MRP2)” (Pharmacology, 2002).

Key:
[1] = target: ATP-binding cassette sub-family C member 2 (Homo sapiens, UniProt Q92887); assay: TP_TRANSPORTER: inhibition of Vinblastine transepithelial transport (basal to apical)(Vinblastine: 0.035 uM, Sulfinpyrazone: 1000 uM) in MRP2-expressing MDCKII cells; format: functional, cell-based; settings: dog, mdck-ii
[2] = target: Multidrug resistance-associated protein 1 (Homo sapiens, UniProt P33527); assay: TP_TRANSPORTER: transepithelial transport (basal to apical) in MRP1-expressing LLC-PK1cell; format: functional, cell-based; settings: pig, llc-pk1
Multidrug resistance-associated protein 1, sequence (P33527 whole entry): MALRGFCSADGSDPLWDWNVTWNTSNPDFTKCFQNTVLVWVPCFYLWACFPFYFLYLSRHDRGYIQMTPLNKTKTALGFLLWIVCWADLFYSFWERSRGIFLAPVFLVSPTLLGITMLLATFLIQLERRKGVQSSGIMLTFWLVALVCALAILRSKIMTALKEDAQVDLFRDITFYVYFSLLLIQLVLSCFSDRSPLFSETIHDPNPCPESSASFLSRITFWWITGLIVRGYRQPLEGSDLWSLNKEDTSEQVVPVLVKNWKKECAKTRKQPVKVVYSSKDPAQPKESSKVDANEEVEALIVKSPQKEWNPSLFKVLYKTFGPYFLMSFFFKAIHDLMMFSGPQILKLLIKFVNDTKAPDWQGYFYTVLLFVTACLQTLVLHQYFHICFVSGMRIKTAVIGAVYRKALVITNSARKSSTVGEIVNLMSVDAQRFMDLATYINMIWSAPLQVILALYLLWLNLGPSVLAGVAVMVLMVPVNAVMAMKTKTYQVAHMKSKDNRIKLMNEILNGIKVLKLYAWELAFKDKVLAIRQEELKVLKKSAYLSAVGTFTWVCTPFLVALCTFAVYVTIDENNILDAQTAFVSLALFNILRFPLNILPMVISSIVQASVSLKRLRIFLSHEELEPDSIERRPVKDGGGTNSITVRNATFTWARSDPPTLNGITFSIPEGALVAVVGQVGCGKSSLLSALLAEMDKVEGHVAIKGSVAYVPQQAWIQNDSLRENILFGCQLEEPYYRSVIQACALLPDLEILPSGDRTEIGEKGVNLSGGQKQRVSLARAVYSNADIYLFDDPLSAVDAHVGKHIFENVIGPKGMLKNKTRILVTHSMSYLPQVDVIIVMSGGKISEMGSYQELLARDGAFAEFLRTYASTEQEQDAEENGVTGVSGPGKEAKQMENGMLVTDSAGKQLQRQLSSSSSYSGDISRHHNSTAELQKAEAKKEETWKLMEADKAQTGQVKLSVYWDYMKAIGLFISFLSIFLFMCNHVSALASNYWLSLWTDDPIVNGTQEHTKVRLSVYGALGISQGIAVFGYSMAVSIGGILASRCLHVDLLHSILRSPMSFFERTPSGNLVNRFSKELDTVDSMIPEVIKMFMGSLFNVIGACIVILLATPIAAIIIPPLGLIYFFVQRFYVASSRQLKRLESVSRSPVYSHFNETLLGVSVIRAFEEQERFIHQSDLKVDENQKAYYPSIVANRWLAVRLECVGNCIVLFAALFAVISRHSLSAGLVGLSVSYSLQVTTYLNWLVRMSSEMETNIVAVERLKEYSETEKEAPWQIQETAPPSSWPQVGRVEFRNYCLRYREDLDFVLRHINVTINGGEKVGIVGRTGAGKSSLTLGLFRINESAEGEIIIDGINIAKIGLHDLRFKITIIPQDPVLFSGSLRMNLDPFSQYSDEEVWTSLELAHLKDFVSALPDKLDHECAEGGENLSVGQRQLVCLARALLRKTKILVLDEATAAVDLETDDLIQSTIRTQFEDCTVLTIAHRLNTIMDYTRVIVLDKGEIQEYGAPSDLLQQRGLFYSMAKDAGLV

ATP-binding cassette sub-family C member 2, sequence (Q92887 whole entry): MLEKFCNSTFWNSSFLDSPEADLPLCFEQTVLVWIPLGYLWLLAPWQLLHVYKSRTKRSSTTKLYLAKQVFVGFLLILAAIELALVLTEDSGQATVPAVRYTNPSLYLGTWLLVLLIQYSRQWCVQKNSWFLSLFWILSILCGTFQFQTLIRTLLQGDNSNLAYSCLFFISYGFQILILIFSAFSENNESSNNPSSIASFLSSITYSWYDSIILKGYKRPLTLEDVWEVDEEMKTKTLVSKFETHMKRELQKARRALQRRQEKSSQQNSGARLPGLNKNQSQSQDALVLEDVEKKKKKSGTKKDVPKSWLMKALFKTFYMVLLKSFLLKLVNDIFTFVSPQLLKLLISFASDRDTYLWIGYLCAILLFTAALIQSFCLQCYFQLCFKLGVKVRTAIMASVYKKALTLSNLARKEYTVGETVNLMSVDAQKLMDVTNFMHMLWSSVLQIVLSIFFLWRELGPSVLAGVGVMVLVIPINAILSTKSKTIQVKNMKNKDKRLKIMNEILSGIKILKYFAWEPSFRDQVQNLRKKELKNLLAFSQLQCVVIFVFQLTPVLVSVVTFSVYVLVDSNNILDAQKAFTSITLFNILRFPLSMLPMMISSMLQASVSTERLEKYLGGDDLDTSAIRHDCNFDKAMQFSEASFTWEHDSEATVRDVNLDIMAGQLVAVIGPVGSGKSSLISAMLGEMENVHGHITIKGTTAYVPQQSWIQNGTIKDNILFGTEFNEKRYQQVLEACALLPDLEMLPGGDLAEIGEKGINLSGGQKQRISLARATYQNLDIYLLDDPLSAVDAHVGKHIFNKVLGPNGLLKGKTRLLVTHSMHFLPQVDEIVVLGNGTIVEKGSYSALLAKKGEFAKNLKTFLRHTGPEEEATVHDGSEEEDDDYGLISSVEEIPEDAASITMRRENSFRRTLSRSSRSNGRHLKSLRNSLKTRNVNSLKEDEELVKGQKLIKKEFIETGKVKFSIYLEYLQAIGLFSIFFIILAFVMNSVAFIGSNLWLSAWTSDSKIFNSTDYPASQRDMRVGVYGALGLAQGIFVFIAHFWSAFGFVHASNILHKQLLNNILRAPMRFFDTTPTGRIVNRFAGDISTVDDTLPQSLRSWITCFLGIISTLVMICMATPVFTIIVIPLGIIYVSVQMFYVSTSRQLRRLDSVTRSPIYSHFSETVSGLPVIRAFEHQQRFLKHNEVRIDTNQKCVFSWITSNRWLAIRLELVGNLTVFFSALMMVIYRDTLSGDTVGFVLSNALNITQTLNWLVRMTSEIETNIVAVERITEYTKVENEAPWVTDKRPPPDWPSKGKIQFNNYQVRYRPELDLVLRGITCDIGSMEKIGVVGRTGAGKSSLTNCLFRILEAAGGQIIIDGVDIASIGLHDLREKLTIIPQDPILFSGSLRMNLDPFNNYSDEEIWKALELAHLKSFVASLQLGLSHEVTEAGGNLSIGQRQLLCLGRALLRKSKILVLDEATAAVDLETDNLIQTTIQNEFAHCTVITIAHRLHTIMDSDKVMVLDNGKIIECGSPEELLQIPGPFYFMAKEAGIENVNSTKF

| Activity [1] | Activity [2] | Compound |
| --- | --- | --- |
| inhibitor [+] |  | O=C1C(CC[S+]([O-])c2ccccc2)C(=O)N(c2ccccc2)N1c1ccccc1 (configuration not stated) [SULFINPYRAZONE] |
|  | substrate [+] | CC[C@]1(O)C[C@@H]2CN(CCc3c([nH]c4ccccc34)[C@@](C(=O)OC)(c3cc4c(cc3OC)N(C)[C@H]3[C@@](O)(C(=O)OC)[C@H](OC(C)=O)[C@]5(CC)C=CCN6CC[C@]43[C@@H]65)C2)C1 [VINBLASTINE] |
